Measurements from the supplement of paper PMC10307832.

Columns and labels:
Experiment in all cases: relative viability (nuclei count vs DMSO), 5 days (fraction); higher = more cells survive
[1] = test system: COR-L 105
Procedure, shortened: (§1)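 Each reported value is a median over duplicate plates. It expresses relative viability: treated-well nuclei count divided by vehicle-well nuclei count. Lung cancer cell lines in 1536-well plates were dosed by pin tool a day after seeding, alone with one drug or with a fixed anchor-drug dose plus five library-drug doses (not always all listed) in √10 steps, and nuclei were counted after 5 days.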

[2] = test system: EKVX
Procedure, shortened: as §1

[3] = test system: EMC-BAC-2
Procedure, shortened: as §1

[4] = test system: H3255
Procedure, shortened: as §1

[5] = test system: LC-2-ad
Procedure, shortened: as §1

[6] = test system: LK-2
Procedure, shortened: as §1

[7] = test system: LXF-289
Procedure, shortened: as §1

[8] = test system: NCI-H1395
Procedure, shortened: as §1

[9] = test system: NCI-H1437
Procedure, shortened: as §1

[10] = test system: NCI-H1651
Procedure, shortened: as §1

[11] = test system: NCI-H1755
Procedure, shortened: as §1

[12] = test system: NCI-H1793
Procedure, shortened: as §1

[13] = test system: NCI-H1915
Procedure, shortened: as §1

[14] = test system: NCI-H1944
Procedure, shortened: as §1

[15] = test system: NCI-H2085
Procedure, shortened: as §1

[16] = test system: NCI-H2087
Procedure, shortened: as §1

[17] = test system: NCI-H2347
Procedure, shortened: as §1

[18] = test system: NCI-H661
Procedure, shortened: as §1

[19] = test system: PC-3 [JPC-3]
Procedure, shortened: as §1

[20] = test system: SK-LU-1
Procedure, shortened: as §1

[21] = test system: SK-MES-1
Procedure, shortened: as §1

Compound: O=c1[nH]c2ccccc2n1C1CCN(CCCC(c2ccc(F)cc2)c2ccc(F)cc2)CC1 [Pimozide] + Nc1ncn([C@H]2C[C@H](O)[C@@H](CO)O2)c(=O)n1 [Decitabine] (partner 2 µM)
- relative viability ([1]; first compound 0.08 µM): 0.49
- relative viability ([1]; first compound 0.253 µM): 0.702
- relative viability ([1]; first compound 0.8 µM): 0.623
- relative viability ([1]; first compound 2.53 µM): 0.659
- relative viability ([1]; first compound 8 µM): 0.701
- relative viability ([2]; first compound 0.253 µM): 0.333
- relative viability ([2]; first compound 0.8 µM): 0.341
- relative viability ([2]; first compound 2.53 µM): 0.349
- relative viability ([2]; first compound 8 µM): 0.364
- relative viability ([3]; first compound 0.08 µM): 0.956
- relative viability ([3]; first compound 0.253 µM): 0.918
- relative viability ([3]; first compound 0.8 µM): 0.911
- relative viability ([3]; first compound 2.53 µM): 0.953
- relative viability ([3]; first compound 8 µM): 0.983
- relative viability ([4]; first compound 0.253 µM): 0.538
- relative viability ([4]; first compound 0.8 µM): 0.496
- relative viability ([4]; first compound 2.53 µM): 0.626
- relative viability ([4]; first compound 8 µM): 0.734
- relative viability ([5]; first compound 0.08 µM): 0.776
- relative viability ([5]; first compound 0.253 µM): 0.697
- relative viability ([5]; first compound 0.8 µM): 0.854
- relative viability ([5]; first compound 2.53 µM): 0.868
- relative viability ([5]; first compound 8 µM): 0.837
- relative viability ([6]; first compound 0.08 µM): 0.25
- relative viability ([6]; first compound 0.253 µM): 0.289
- relative viability ([6]; first compound 0.8 µM): 0.28
- relative viability ([6]; first compound 2.53 µM): 0.296
- relative viability ([6]; first compound 8 µM): 0.33
- relative viability ([7]; first compound 0.08 µM): 0.378
- relative viability ([7]; first compound 0.253 µM): 0.4
- relative viability ([7]; first compound 0.8 µM): 0.324
- relative viability ([7]; first compound 2.53 µM): 0.357
- relative viability ([7]; first compound 8 µM): 0.39
- relative viability ([8]; first compound 0.08 µM): 0.692
- relative viability ([8]; first compound 0.253 µM): 0.74
- relative viability ([8]; first compound 0.8 µM): 0.633
- relative viability ([8]; first compound 2.53 µM): 0.691
- relative viability ([8]; first compound 8 µM): 0.637
- relative viability ([9]; first compound 0.08 µM): 0.632
- relative viability ([9]; first compound 0.253 µM): 0.547
- relative viability ([9]; first compound 0.8 µM): 0.555
- relative viability ([9]; first compound 2.53 µM): 0.465
- relative viability ([9]; first compound 8 µM): 0.549
- relative viability ([10]; first compound 0.08 µM): 0.597
- relative viability ([10]; first compound 0.253 µM): 0.507
- relative viability ([10]; first compound 0.8 µM): 0.719
- relative viability ([10]; first compound 2.53 µM): 0.588
- relative viability ([10]; first compound 8 µM): 0.611
- relative viability ([11]; first compound 0.08 µM): 0.675
- relative viability ([11]; first compound 0.253 µM): 0.659
- relative viability ([11]; first compound 0.8 µM): 0.624
- relative viability ([11]; first compound 2.53 µM): 0.684
- relative viability ([11]; first compound 8 µM): 0.69
- relative viability ([12]; first compound 0.08 µM): 0.501
- relative viability ([12]; first compound 0.253 µM): 0.489
- relative viability ([12]; first compound 0.8 µM): 0.516
- relative viability ([12]; first compound 2.53 µM): 0.556
- relative viability ([12]; first compound 8 µM): 0.58
- relative viability ([13]; first compound 0.08 µM): 0.267
- relative viability ([13]; first compound 0.253 µM): 0.248
- relative viability ([13]; first compound 2.53 µM): 0.262
- relative viability ([13]; first compound 8 µM): 0.262
- relative viability ([14]; first compound 0.08 µM): 0.398
- relative viability ([14]; first compound 2.53 µM): 0.436
- relative viability ([14]; first compound 8 µM): 0.393
- relative viability ([15]; first compound 0.08 µM): 0.545
- relative viability ([15]; first compound 0.253 µM): 0.544
- relative viability ([15]; first compound 0.8 µM): 0.573
- relative viability ([15]; first compound 2.53 µM): 0.551
- relative viability ([15]; first compound 8 µM): 0.585
- relative viability ([16]; first compound 0.08 µM): 0.277
- relative viability ([16]; first compound 0.253 µM): 0.328
- relative viability ([16]; first compound 2.53 µM): 0.342
- relative viability ([16]; first compound 8 µM): 0.275
- relative viability ([17]; first compound 0.08 µM): 0.651
- relative viability ([17]; first compound 0.253 µM): 0.589
- relative viability ([17]; first compound 0.8 µM): 0.574
- relative viability ([17]; first compound 2.53 µM): 0.594
- relative viability ([17]; first compound 8 µM): 0.559
- relative viability ([18]; first compound 0.08 µM): 0.564
- relative viability ([18]; first compound 0.253 µM): 0.581
- relative viability ([18]; first compound 0.8 µM): 0.48
- relative viability ([18]; first compound 2.53 µM): 0.497
- relative viability ([18]; first compound 8 µM): 0.495
- relative viability ([19]; first compound 0.253 µM): 0.838
- relative viability ([19]; first compound 0.8 µM): 0.823
- relative viability ([19]; first compound 2.53 µM): 0.904
- relative viability ([19]; first compound 8 µM): 0.854
- relative viability ([20]; first compound 0.08 µM): 0.631
- relative viability ([20]; first compound 0.253 µM): 0.741
- relative viability ([20]; first compound 0.8 µM): 0.6
- relative viability ([20]; first compound 2.53 µM): 0.583
- relative viability ([20]; first compound 8 µM): 0.49
- relative viability ([21]; first compound 0.08 µM): 0.389
- relative viability ([21]; first compound 0.253 µM): 0.39
- relative viability ([21]; first compound 0.8 µM): 0.355
- relative viability ([21]; first compound 2.53 µM): 0.454
- relative viability ([21]; first compound 8 µM): 0.774
